Key:
[1] = target: IgE- and IgG-mediated activation of Fc receptor signaling; conditions: read-out: EC50 for degranulation; cited from earlier work
[2] = test system: monocytes/macrophages, neutrophils, B lymphocytes; conditions: cited from earlier work
[3] = test system: Transgenic HIT mice homozygous for both FcγRIIA and human PF4 and null for mouse PF4; assay: Inhibition of thrombosis in vivo, transgenic HIT mice, lung thrombi; conditions: chow containing 0.5, 1 and 2 g/kg of R788 for 3 days, KKO or HIT-IgG, then heparin, lungs 3 hours later
Excerpt: Transgenic HIT mice homozygous for both FcγRIIA and human PF4 and null for mouse PF4 are used to evaluate the effects of fostamatinib on immune complexes (IC)-induced thrombocytopenia and thrombosis. 6-12 weeks old transgenic male mice are fed the control chow or chow containing 0.5, 1 and 2 g/kg of R788 for 3 days prior to the injection of either the monoclonal HIT-like antibody KKO or IgG from HIT patients (HIT-IgG). For HIT-induced thrombocytopenia experiments, all mice received heparin subcutaneously at 1600 U/kg body weight once daily for 6 days, starting with first day after antibody injection. Retro-orbital blood collection is performed daily after anesthetizing the animals starting a day before HIT antibody injection to monitor thrombocytopenia by counting platelets using standard equipment.
To assess fostamatinib effect on thrombosis, the mice are fed with drug or vehicle chow followed by injection of the HIT antibodies as described. Next day, each animal is retro-orbitally infused with 1×10^8 Alexa750-labeled platelets from untreated syngeneic donor mice prior to heparin injection. Animals are terminated 3 hours later, their lungs are excised, perfused with PBS, fixed with 7% paraformaldehyde and imaged using Odyssey Imaging System (LI-COR Bio). Thrombi are counted and scored by intensity using NIS Elements software (Nikon). […]

[4] = test system: C57Bl/6 WT male mice; assay: Deep vein thrombosis, inferior vena cava (IVC) stenosis model; type: in vivo; conditions: fostamatinib chow for 3 days; 48 hours after the surgery
Procedure: Mice are fed fostamatinib or vehicle chow for 3 days, anaesthetized using isoflurane and then subjected to laparotomy. After tying off the side branches of the IVC, the IVC is stenosed with a ligature and a 30-gauge spacer to maintain a small degree of blood flow. Mice are allowed to recover, then culled 48 hours after the surgery and the IVC are examined for the presence and size of thrombus.
For deep vein thrombosis assay methods generally, see, Low dose Btk inhibitors selectively block platelet activation by CLEC-2. Phillip L. R. Nicolson et al. Haematologica 2020 Jan. 16. pii: haematol. 2019.218545. doi: 10.3324/haematol.2019.218545

[5] = test system: ITP patients; assay: Fostamatinib in immune thrombocytic purpura (ITP) patients; type: in vivo, human
[6] = test system: C57Bl6 mice; assay: Arterial thrombosis, ferric chloride injury model of carotid artery; type: in vivo; conditions: fostamatinib chow for 3 days; FeCl3 on carotid artery
Procedure: To investigate effect on arterial thrombosis, a ferric chloride injury model in mice is employed. 8-week-old C57Bl6 mice are fed fostamatinib or vehicle chow for 3 days, anaesthetized using mixture of ketamine (100 mg/kg)/xylazine (10 mg/kg) via intraperitoneal injection and have their right jugular vein exposed. Next, rhodamine 6G solution is injected into the right jugular vein to label platelets, exposed carotid artery (CA) staged at the microscope and the thrombosis is induced by applying a piece of filter paper (1×2 mm) saturated with FeCl3 solution directly on the CA. Thrombus formation is identified by accumulation of the fluorescent platelets, which is observed in real-time recording video images under the microscope.
For arterial thrombosis assay methods generally, see, Wei Li, Thomas M. McIntyre, Roy L. Silverstein. Ferric chloride-induced murine carotid arterial injury: A model of redox pathology. Redox Biology 1 (2013) 50-55, and Wei Li, Marvin Nieman, Anirban Sen Gupta. Ferric Chloride-induced Murine Thrombosis Models. J. Vis. Exp. (115), e54479, doi:10.3791/54479 (2016).

SMILES | EC50 [1] | BCR-mediated activation of B lymphocytes [2] | Syk-dependent FcR-mediated activation of monocytes/macrophages and neutrophils [2] | heparin induced thrombosis (lung thrombi counted and scored by intensity) [3] | heparin induced thrombosis (lung thrombi counted and scored by intensity) ([3]; listed as R788) | presence and size of thrombus in IVC [4] | platelet levels [5] | risk of thrombosis [5] | arterial thrombus formation (accumulation of fluorescent platelets) [6]
COc1cc(Nc2ncc(F)c(Nc3ccc4c(n3)NC(=O)C(C)(C)O4)n2)cc(OC)c1OC [R406, 6-((5-fluoro-2-((3,4,5-trimethoxyphenyl)amino)pyrimidin-4-yl)amino)-2,2-dimethyl-2H-pyrido[3,2-b][1,4]oxazin-3(4H)-one] | 56 to 64 nM | blocked | blocked | – | – | – | – | – | –
COc1cc(Nc2ncc(F)c(Nc3ccc4c(n3)N(COP(=O)(O)O)C(=O)C(C)(C)O4)n2)cc(OC)c1OC [fostamatinib, [6-({5-Fluoro-2-[(3,4,5-trimethoxyphenyl)amino]-4-pyrimidinyl}amino)-2,2-dimethyl-3-oxo-2,3-dihydro-4H-pyrido[3,2-b][1,4]oxazin-4-yl]methyl dihydrogen phosphate] | – | – | – | effectively reduces heparin induced thrombosis | inhibits thrombosis in vivo | Relative lack of thrombus | increases platelet levels | does not appear to increase risk of thrombosis | Lack of thrombus formation

— patent US20200377518A1, “METHOD OF PREVENTING AND TREATING THROMBOSIS” (Rigel Pharmaceuticals, Inc., priority 2019, published 2020)
